In brackets after ≈: the same amount, converted by molar mass. Activity calls are given as the source filed them. The calls are words filed in the database; no cut-off is given here.
Assays:
Staphylococcus aureus [1] = assay: Bactericidal activity against mupirocin/rifampicin-resistant Staphylococcus aureus RN4220 NRS107 clinical isolate after 24 hrs; assay type: functional; settings: RN4220 NRS107, 24 h
Staphylococcus aureus [2] = assay: Bactericidal activity against vancomycin-resistant Staphylococcus aureus VRSA10 clinical isolate after 24 hrs; assay type: functional; settings: VRSA10, 24 h
Staphylococcus aureus [3] = assay: Bactericidal activity against methicillin/ciprofloxacin/clindamycin-resistant Staphylococcus aureus USA100 NRS382 clinical isolate after 24 hrs; assay type: functional; settings: USA100 NRS382, 24 h
Staphylococcus aureus [4] = assay: Bactericidal activity against methicillin-resistant Staphylococcus aureus USA400 NRS123 clinical isolate after 24 hrs; assay type: functional; settings: USA400 NRS123, 24 h
Staphylococcus aureus [5] = assay: Antibacterial activity against methicillin/ciprofloxacin/clindamycin-resistant Staphylococcus aureus USA100 NRS382 clinical isolate after 18 to 20 hrs by broth microdilution method; assay type: functional
Staphylococcus aureus [6] = assay: Antibacterial activity against mupirocin/rifampicin-resistant Staphylococcus aureus RN4220 NRS107 clinical isolate after 18 to 20 hrs by broth microdilution method; assay type: functional
Staphylococcus aureus [7] = assay: Antibacterial activity against methicillin-resistant Staphylococcus aureus USA400 NRS123 clinical isolate after 18 to 20 hrs by broth microdilution method; assay type: functional
Staphylococcus aureus [8] = assay: Antibacterial activity against methicillin-resistant Staphylococcus aureus 2658 RCMB after 18 to 20 hrs by broth microdilution method; assay type: functional
Staphylococcus aureus [9] = assay: Antibacterial activity against methicillin/erythromycin/tetracycline-resistant Staphylococcus aureus USA300 NRS384 clinical isolate after 18 to 20 hrs by broth microdilution method; assay type: functional
Staphylococcus aureus [10] = assay: Bactericidal activity against vancomycin-resistant Staphylococcus aureus VRSA4 clinical isolate after 24 hrs; assay type: functional; settings: VRSA4, 24 h
Staphylococcus aureus [11] = assay: Antibacterial activity against vancomycin-resistant Staphylococcus aureus VRSA10 clinical isolate after 18 to 20 hrs by broth microdilution method; assay type: functional
Staphylococcus aureus [12] = assay: Antibacterial activity against vancomycin-resistant Staphylococcus aureus VRSA4 clinical isolate after 18 to 20 hrs by broth microdilution method; assay type: functional
Staphylococcus aureus [13] = assay: Bactericidal activity against methicillin/erythromycin/tetracycline-resistant Staphylococcus aureus USA300 NRS384 clinical isolate after 24 hrs; assay type: functional; settings: USA300 NRS384, 24 h
Staphylococcus aureus [14] = assay: Bactericidal activity against methicillin/ciprofloxacin/gentamicin/clindamycin-resistant Staphylococcus aureus USA200 NRS383 clinical isolate after 24 hrs; assay type: functional; settings: USA200 NRS383, 24 h
Staphylococcus aureus [15] = assay: Antibacterial activity against methicillin/ciprofloxacin/gentamicin/clindamycin-resistant Staphylococcus aureus USA200 NRS383 clinical isolate after 18 to 20 hrs by broth microdilution method; assay type: functional
Staphylococcus aureus [16] = assay: Bactericidal activity against methicillin-resistant Staphylococcus aureus USA400 NRS123 clinical isolate assessed as time required to reduce 3 log10CFU of bacterial load at 4 times MIC by time kill assay; assay type: functional
[17] = Intrinsic clearance in human liver microsomes after 10 to 60 mins in absence of NADPH by LC/MS/MS analysis; assay type: ADME, microsome; settings: read-out: CLH
[18] = Intrinsic clearance in human liver microsomes after 10 to 60 mins in presence of NADPH by LC/MS/MS analysis; assay type: ADME, microsome; settings: read-out: CLH
HaCaT [19] = assay: Cytotoxicity against human HaCaT cells assessed as decrease in cell viability up to 32 ug/ml after 2 hrs by MTS assay; assay type: cell-based
[20] = Half life in human liver microsomes after 10 to 60 mins in absence of NADPH by LC/MS/MS analysis; assay type: ADME, microsome
HaCaT [21] = assay: Cytotoxicity against human HaCaT cells assessed as decrease in cell viability at 64 ug/ml after 2 hrs by MTS assay; assay type: cell-based
[22] = Half life in human liver microsomes after 10 to 60 mins in presence of NADPH by LC/MS/MS analysis; assay type: ADME, microsome
Staphylococcus aureus [23] = assay: Bactericidal activity against methicillin-resistant Staphylococcus aureus USA400 NRS123 clinical isolate assessed as reduction of bacterial load at 4 times MIC after 24 hrs by time kill assay; assay type: functional
Staphylococcus aureus [24] = assay: Antibacterial activity against methicillin-resistant Staphylococcus aureus USA400 NRS123 clinical isolate infected in mouse J774 cells assessed as reduction of bacterial load at 16 ug/ml after 24 hrs relative to control; assay type: functional
Staphylococcus aureus [25] = assay: Bactericidal activity against methicillin-resistant Staphylococcus aureus USA400 NRS123 clinical isolate assessed as time required to reduce 4 log10CFU of bacterial load at 4 times MIC by time kill assay; assay type: functional
HaCaT [26] = assay: Cytotoxicity against human HaCaT cells assessed as decrease in cell viability up to 16 ug/ml after 2 hrs by MTS assay; assay type: cell-based
Staphylococcus aureus [27] = assay: Bactericidal activity against methicillin-resistant Staphylococcus aureus USA400 NRS123 clinical isolate assessed as reduction of bacterial load at 4 times MIC after 48 hrs by time kill assay; assay type: functional

Structure (SMILES): C/C=C/COc1ccc(-c2nc(C)c(/C(C)=N/NC(=N)N)s2)cc1
- MBC (Staphylococcus aureus [1]): 32 µg/mL (≈ 93.2 µM)
- MBC (Staphylococcus aureus [2]): 32 µg/mL (≈ 93.2 µM)
- MBC (Staphylococcus aureus [3]): 128 µg/mL (≈ 373 µM)
- MBC (Staphylococcus aureus [4]): > 32 µg/mL
- MIC (Staphylococcus aureus [5]): 16 µg/mL (≈ 46.6 µM)
- MIC (Staphylococcus aureus [6]): 32 µg/mL (≈ 93.2 µM)
- MIC (Staphylococcus aureus [7]): 32 µg/mL (≈ 93.2 µM)
- MIC (Staphylococcus aureus [8]): 15.6 µg/mL (≈ 45.5 µM)
- MIC (Staphylococcus aureus [9]): 32 µg/mL (≈ 93.2 µM)
- MBC (Staphylococcus aureus [10]): 32 µg/mL (≈ 93.2 µM)
- MIC (Staphylococcus aureus [11]): 32 µg/mL (≈ 93.2 µM)
- MIC (Staphylococcus aureus [12]): 32 µg/mL (≈ 93.2 µM)
- MBC (Staphylococcus aureus [13]): > 32 µg/mL
- MBC (Staphylococcus aureus [14]): > 64 µg/mL
- MIC (Staphylococcus aureus [15]): 16 µg/mL (≈ 46.6 µM)

Structure (SMILES): C/C(=N\NC(=N)N)c1sc(-c2ccc(OCCC(C)C)cc2)nc1C
- MBC (Staphylococcus aureus [1]): 16 µg/mL (≈ 44.5 µM)
- MBC (Staphylococcus aureus [2]): 32 µg/mL (≈ 89 µM)
- MBC (Staphylococcus aureus [3]): 8 µg/mL (≈ 22.3 µM)
- MBC (Staphylococcus aureus [4]): > 32 µg/mL
- MIC (Staphylococcus aureus [5]): 8 µg/mL (≈ 22.3 µM)
- MIC (Staphylococcus aureus [6]): 16 µg/mL (≈ 44.5 µM)
- MIC (Staphylococcus aureus [7]): 16 µg/mL (≈ 44.5 µM)
- MIC (Staphylococcus aureus [8]): 7.81 µg/mL (≈ 21.7 µM)
- MIC (Staphylococcus aureus [9]): 16 µg/mL (≈ 44.5 µM)
- MBC (Staphylococcus aureus [10]): 32 µg/mL (≈ 89 µM)
- MIC (Staphylococcus aureus [11]): 16 µg/mL (≈ 44.5 µM)
- MIC (Staphylococcus aureus [12]): 16 µg/mL (≈ 44.5 µM)
- MBC (Staphylococcus aureus [13]): 32 µg/mL (≈ 89 µM)
- MBC (Staphylococcus aureus [14]): 16 µg/mL (≈ 44.5 µM)
- MIC (Staphylococcus aureus [15]): 8 µg/mL (≈ 22.3 µM)

Structure (SMILES): C/C(=N\NC(=N)N)c1sc(-c2ccc(OCC3CCC3)cc2)nc1C
- MIC (Staphylococcus aureus [8]): > 30 µg/mL

Structure (SMILES): CCCCCCOc1ccc(-c2nc(C)c(/C(C)=N/NC(=N)N)s2)cc1
- MBC (Staphylococcus aureus [1]): 4 µg/mL (≈ 10.7 µM)
- MBC (Staphylococcus aureus [2]): 4 µg/mL (≈ 10.7 µM)
- MBC (Staphylococcus aureus [3]): 2 µg/mL (≈ 5.35 µM)
- Time (Staphylococcus aureus [16]): 24 h
- MBC (Staphylococcus aureus [4]): 16 µg/mL (≈ 42.8 µM)
- microsomal CLint [17]: < 9.6 µL/min/mg
- MIC (Staphylococcus aureus [5]): 2 µg/mL (≈ 5.35 µM)
- MIC (Staphylococcus aureus [6]): 4 µg/mL (≈ 10.7 µM)
- microsomal CLint [18]: < 9.6 µL/min/mg
- MIC (Staphylococcus aureus [7]): 4 µg/mL (≈ 10.7 µM)
- MIC (Staphylococcus aureus [8]): 0.35 µg/mL (≈ 0.937 µM)
- MIC (Staphylococcus aureus [9]): 4 µg/mL (≈ 10.7 µM)
- Activity (HaCaT [19]): Non-Toxic
- MBC (Staphylococcus aureus [10]): 4 µg/mL (≈ 10.7 µM)
- MIC (Staphylococcus aureus [11]): 4 µg/mL (≈ 10.7 µM)
- MIC (Staphylococcus aureus [12]): 4 µg/mL (≈ 10.7 µM)
- half-life [20]: > 4 h
- Activity (HaCaT [21]): Toxic
- MBC (Staphylococcus aureus [13]): 8 µg/mL (≈ 21.4 µM)
- MBC (Staphylococcus aureus [14]): 2 µg/mL (≈ 5.35 µM)
- MIC (Staphylococcus aureus [15]): 1 µg/mL (≈ 2.68 µM)
- half-life [22]: > 4 h

Structure (SMILES): CCOc1ccc(-c2nc(C)c(/C(C)=N/NC(=N)N)s2)cc1
- MIC (Staphylococcus aureus [8]): > 30 µg/mL

Structure (SMILES): CN[C@H](CC(C)C)C(=O)N[C@H]1C(=O)N[C@@H](CC(N)=O)C(=O)N[C@H]2C(=O)N[C@H]3C(=O)N[C@H](C(=O)N[C@H](C(=O)O)c4cc(O)cc(O)c4-c4cc3ccc4O)[C@H](O)c3ccc(c(Cl)c3)Oc3cc2cc(c3O[C@@H]2O[C@H](CO)[C@@H](O)[C@H](O)[C@H]2O[C@H]2C[C@](C)(N)[C@H](O)[C@H](C)O2)Oc2ccc(cc2Cl)[C@H]1O [VANCOMYCIN]
- MBC (Staphylococcus aureus [1]): 1 µg/mL (≈ 0.69 µM)
- MBC (Staphylococcus aureus [2]): > 512 µg/mL
- MBC (Staphylococcus aureus [3]): < 1 µg/mL
- MBC (Staphylococcus aureus [4]): 0.5 µg/mL (≈ 0.345 µM)
- MIC (Staphylococcus aureus [5]): < 1 µg/mL
- Activity (Staphylococcus aureus [23]): Active
- MIC (Staphylococcus aureus [8]): 1.95 µg/mL (≈ 1.35 µM)
- MBC (Staphylococcus aureus [10]): > 512 µg/mL
- MIC (Staphylococcus aureus [11]): > 512 µg/mL
- MIC (Staphylococcus aureus [12]): > 512 µg/mL
- MBC (Staphylococcus aureus [13]): 1 µg/mL (≈ 0.69 µM)
- Activity (Staphylococcus aureus [24]): inactive
- MBC (Staphylococcus aureus [14]): 0.5 µg/mL (≈ 0.345 µM)

Structure (SMILES): CCCCCCCCOc1ccc(-c2nc(C)c(/C(C)=N/NC(=N)N)s2)cc1
- Time (Staphylococcus aureus [25]): <=2 hr
- MBC (Staphylococcus aureus [1]): 8 µg/mL (≈ 19.9 µM)
- MBC (Staphylococcus aureus [2]): 4 µg/mL (≈ 9.96 µM)
- MBC (Staphylococcus aureus [3]): 2 µg/mL (≈ 4.98 µM)
- MBC (Staphylococcus aureus [4]): 8 µg/mL (≈ 19.9 µM)
- MIC (Staphylococcus aureus [5]): 2 µg/mL (≈ 4.98 µM)
- MIC (Staphylococcus aureus [6]): 4 µg/mL (≈ 9.96 µM)
- MIC (Staphylococcus aureus [7]): 4 µg/mL (≈ 9.96 µM)
- MIC (Staphylococcus aureus [8]): 15.6 µg/mL (≈ 38.9 µM)
- MIC (Staphylococcus aureus [9]): 4 µg/mL (≈ 9.96 µM)
- Activity (HaCaT [26]): Non-Toxic
- MBC (Staphylococcus aureus [10]): 4 µg/mL (≈ 9.96 µM)
- MIC (Staphylococcus aureus [11]): 4 µg/mL (≈ 9.96 µM)
- MIC (Staphylococcus aureus [12]): 4 µg/mL (≈ 9.96 µM)
- Activity (Staphylococcus aureus [27]): Active
- MBC (Staphylococcus aureus [13]): 4 µg/mL (≈ 9.96 µM)
- MBC (Staphylococcus aureus [14]): 2 µg/mL (≈ 4.98 µM)
- MIC (Staphylococcus aureus [15]): 1 µg/mL (≈ 2.49 µM)

Structure (SMILES): CCCOc1ccc(-c2nc(C)c(/C(C)=N/NC(=N)N)s2)cc1
- MIC (Staphylococcus aureus [8]): > 30 µg/mL

Structure (SMILES): C/C(=N\NC(=N)N)c1sc(-c2ccc(OCCCC(C)C)cc2)nc1C
- MBC (Staphylococcus aureus [1]): 16 µg/mL (≈ 42.8 µM)
- MBC (Staphylococcus aureus [2]): 16 µg/mL (≈ 42.8 µM)
- MBC (Staphylococcus aureus [3]): 2 µg/mL (≈ 5.35 µM)
- MBC (Staphylococcus aureus [4]): 32 µg/mL (≈ 85.7 µM)
- MIC (Staphylococcus aureus [5]): 2 µg/mL (≈ 5.35 µM)
- MIC (Staphylococcus aureus [6]): 16 µg/mL (≈ 42.8 µM)
- MIC (Staphylococcus aureus [7]): 16 µg/mL (≈ 42.8 µM)
- MIC (Staphylococcus aureus [8]): 15.6 µg/mL (≈ 41.8 µM)
- MIC (Staphylococcus aureus [9]): 16 µg/mL (≈ 42.8 µM)
- MBC (Staphylococcus aureus [10]): 16 µg/mL (≈ 42.8 µM)
- MIC (Staphylococcus aureus [11]): 16 µg/mL (≈ 42.8 µM)
- MIC (Staphylococcus aureus [12]): 16 µg/mL (≈ 42.8 µM)
- MBC (Staphylococcus aureus [13]): 32 µg/mL (≈ 85.7 µM)
- MBC (Staphylococcus aureus [14]): 16 µg/mL (≈ 42.8 µM)
- MIC (Staphylococcus aureus [15]): 4 µg/mL (≈ 10.7 µM)

— ChEMBL document CHEMBL4002577, “Phenylthiazole antibiotics: A metabolism-guided approach to overcome short duration of action” (Eur J Med Chem, 2017)
